Publication PMC8026769 (Molecular microbiology, 2020)

How the values were obtained:
[1] = target: T1, LpThi5 (LpThi5-His6; Lpg1565) (Legionella pneumophila, UniProt Q5ZV75)
[2] = target: T1, LpThi5 (LpThi5-His6; Lpg1565); remark: listed apart in the source

T1 sequence (Q5ZV75 whole entry, looked up): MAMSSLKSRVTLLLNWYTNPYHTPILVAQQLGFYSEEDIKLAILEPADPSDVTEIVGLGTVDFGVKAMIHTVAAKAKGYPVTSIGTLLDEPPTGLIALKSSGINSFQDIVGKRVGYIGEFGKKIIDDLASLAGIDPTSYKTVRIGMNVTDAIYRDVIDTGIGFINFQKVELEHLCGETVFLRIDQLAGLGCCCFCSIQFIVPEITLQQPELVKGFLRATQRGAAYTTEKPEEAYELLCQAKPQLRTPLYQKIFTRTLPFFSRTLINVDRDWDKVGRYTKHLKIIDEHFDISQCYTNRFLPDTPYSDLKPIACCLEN

Row | SMILES | PLP occupancy [1] [%] | bioassay, HPLC and MALDI-TOF MS of released product [2]
1 | Cc1ncc(COP(=O)(O)O)c(C=O)c1O [PLP, pyridoxal-5’-phosphate] | 63 ± 2 | 
2 | Cc1ncc(CO)c(N)n1 [HMP, 2-methyl-4-amino-5-hydroxymethylpyrimidine] |  | MALDI-TOF MS identified the active molecule as HMP
